Results as given in US20140274688A1, “MOLECULES HAVING CERTAIN PESTICIDAL UTILITIES, AND INTERMEDIATES, COMPOSITIONS, AND PROCESSES RELATED THERETO” (DOW AGROSCIENCES LLC, priority 2013, published 2014).

Key:
[1] = test system: Green Peach Aphid ("GPA") (Myzus persicae); assay: Bioassay on Green Peach Aphid (GPA), foliar spray on cabbage seedlings, corrected % control; assay type: in vivo; conditions: for GPA rating (corrected % control class): foliar spray on cabbage seedlings; for GPA: Table ABC (P), rating of corrected % control
[2] = test system: Yellow Fever Mosquito "YFM" (Aedes aegypti); conditions: for YFM rating (mortality class): Yellow Fever Mosquito larvae, 96-well plates; for YFM: Table ABC (P), rating of mortality, Yellow Fever Mosquito
[3] = test system: Cabbage Looper (Trichoplusia ni) ("CL"); assay: Bioassay on Cabbage Looper (CL), 128-well diet tray assay, percent mortality; assay type: in vivo; conditions: for CL rating (percent mortality class): Cabbage Looper, 128-well diet tray assay; for pest or weed control at 50 µg/cm2: Trichoplusia ni, read-out: CL
Method in brief: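 Larvae held in covered diet trays at 25 °C, 14:10 light-dark, for five to seven days. Percent mortality scored per well and averaged over eight wells.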

[4] = test system: Beet Armyworm (Spodoptera exigua) ("BAW"); assay: Bioassay on Beet Armyworm (BAW), 128-well diet tray assay, percent mortality; assay type: in vivo; conditions: for BAW rating (percent mortality class): Beet Armyworm, 128-well diet tray assay; for pest or weed control at 50 µg/cm2: Spodoptera exigua, read-out: BAW
Method in brief: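 Larvae in covered diet trays held at 25 °C, 14:10 light-dark, for five to seven days. Percent mortality scored per well and averaged over eight wells per treatment.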

In the case of `CC(Cc1ccc(-c2ncn(-c3ccc(OC(F)(F)F)cc3)n2)cc1)NC(=O)/N=C1\SCC(=O)N1c1ccccc1C(C)C` (stereo not shown) [F7, (Z)-1-(3-(2-isopropylphenyl)-4-oxothiazolidin-2-ylidene)-3-(1-(4-(1-(4-(trifluoromethoxy)phenyl)-1H-1,2,4-triazol-3-yl)phenyl)propan-2-yl)urea], the “GPA rating (corrected % control class)” value [1] is reported as “B (More than 0-Less than 80)”, the “YFM rating (mortality class)” value [2] is reported as “A (80-100)” and the “CL rating (percent mortality class)” value [3] is reported as “A (50-100)”. For the same compound, the “BAW rating (percent mortality class)” value [4] was “A (50-100)”.

`Cc1ccc(C(C)C)c(N2C(=O)CS/C2=N\C(=O)NCC(C)c2ccc(-c3ncn(-c4ccc(OC(F)(F)F)cc4)n3)cc2)c1` (stereo not shown) [F10, (Z)-1-(3-(2-isopropyl-5-methylphenyl)-4-oxothiazolidin-2-ylidene)-3-(2-(4-(1-(4-(trifluoromethoxy)phenyl)-1H-1,2,4-triazol-3-yl)phenyl)propyl)urea] was tested, and the “GPA rating (corrected % control class)” value [1] was “B (More than 0-Less than 80)”, the “YFM rating (mortality class)” value [2] was “A (80-100)” and the “CL rating (percent mortality class)” value [3] was “A (50-100)”. The “BAW rating (percent mortality class)” value [4] was “A (50-100)”.

With `CC(C)c1cccc(N2C(=O)CS/C2=N\C(=O)NCCc2ccc(-c3ncn(-c4ccc(OC(F)(F)F)cc4)n3)cc2)c1` [P51, (Z)-1-(3-(3-isopropylphenyl)-4-oxothiazolidin-2-ylidene)-3-(4-(1-(4-(trifluoromethoxy)phenyl)-1H-1,2,4-triazol-3-yl)phenethyl)urea] the GPA [1] was “B (More than 0-Less than 80)”, the YFM [2] was “A (80-100)” and the pest or weed control at 50 µg/cm2 [3] was 50 to 100%. The pest or weed control at 50 µg/cm2 [4] was 50 to 100%.

`Cc1ccc(C(C)C)c(N2C(=O)CS/C2=N\C(=O)NCCCCc2ccc(-c3ncn(-c4ccc(C(F)(F)F)cc4)n3)cc2)c1` [P159, (Z)-1-(3-(2-isopropyl-5-methylphenyl)-4-oxothiazolidin-2-ylidene)-3-(4-(4-(1-(4-(trifluoromethyl)phenyl)-1H-1,2,4-triazol-3-yl)phenyl)butyl)urea] was tested, and the GPA [1] was “B (More than 0-Less than 80)”, the YFM [2] was “A (80-100)” and the pest or weed control at 50 µg/cm2 [3] was 50 to 100%. It also gave a pest or weed control at 50 µg/cm2 [4] of 50 to 100%.
